Inconclusive results and toxic doses are left out. No stated cut-off is given here; in the data, active means T/C of 150% or more; inactive means T/C below 125%.
System: L1210 leukemia ip in BDF1 mice, survival T/C
Test: NCI In Vivo Anticancer Drug Screen. Data for tumor model L1210 Leukemia (intraperitoneal) in B6D2F1 (BDF1) mice
Settings: endpoint: mean survival time, higher = longer survival
Procedure, shortened: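 In this screen, tumor-bearing mice given compound are compared to those given vehicle, and their survival values are reported as a treated-to-control quotient.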

[1] = dose: 100.0 mg/kg/injection, schedule: Q04DX003 (ip), vehicle: saline with Tween-80
[2] = dose: 200.0 mg/kg/injection, schedule: Q04DX003 (ip), vehicle: saline with Tween-80
[3] = dose: 400.0 mg/kg/injection, schedule: Q04DX003 (ip), vehicle: saline with Tween-80
[4] = dose: 50.0 mg/kg/injection, schedule: Q01DX009 (ip), vehicle: saline with Tween-80
[5] = dose: 100.0 mg/kg/injection, schedule: Q01DX009 (ip), vehicle: saline with Tween-80
[6] = dose: 200.0 mg/kg/injection, schedule: Q01DX009 (ip), vehicle: saline with Tween-80
[7] = dose: 50.0 mg/kg/injection, schedule: Q01DX009 (ip), vehicle: saline
[8] = dose: 100.0 mg/kg/injection, schedule: Q04DX002 (ip), vehicle: saline
[9] = dose: 200.0 mg/kg/injection, schedule: Q04DX002 (ip), vehicle: saline
[10] = dose: 100.0 mg/kg/injection, schedule: Q01DX001 (ip), vehicle: saline
[11] = dose: 200.0 mg/kg/injection, schedule: Q01DX001 (ip), vehicle: saline
[12] = dose: 400.0 mg/kg/injection, schedule: Q01DX001 (ip), vehicle: saline
[13] = dose: 100.0 mg/kg/injection, schedule: Q01DX001 (ip), vehicle: Klucel (hydroxypropylcellulose) (HPC)

Measured: T/C

COC(OC)c1nc(N)nc(N)c1-c1ccc(F)cc1
inactive: [1] 94 % of control | [2] 96 % of control | [3] 96 % of control

CCC(=O)c1ccc(O)c(C)c1
inactive: dose: 55.5 mg/kg/injection, schedule: Q01DX Z (ip), vehicle: methylcellulose (MC) 98 % of control | dose: 83.3 mg/kg/injection, schedule: Q01DX Z (ip), vehicle: methylcellulose (MC) 96 % of control | dose: 125.0 mg/kg/injection, schedule: Q01DX Z (ip), vehicle: methylcellulose (MC) 102 % of control | dose: 187.5 mg/kg/injection, schedule: Q01DX Z (ip), vehicle: methylcellulose (MC) 103 % of control

CC(=O)OC1CC2C=CC1C2 (stereo not drawn) (tested in a mixture with another compound)
inactive: [4] 89 % of control | [5] 89 % of control | [6] 92 % of control

NC(N)=NC(N)=NC1CCCCC1
inactive: [7] 89 % of control | dose: 100.0 mg/kg/injection, schedule: Q01DX009 (ip), vehicle: saline 102 % of control | dose: 200.0 mg/kg/injection, schedule: Q01DX009 (ip), vehicle: saline 108 % of control

O=S(=O)(O)c1ccc(CCCCCCCCCl)cc1
inactive: [8] 87 % of control | [9] 93 % of control

NC(CS)C(=O)O (stereo not drawn)
inactive: [10] 105 % of control | [11] 92 % of control | dose: 250.0 mg/kg/injection, schedule: Q01DX Z (ip), vehicle: other 91 % of control | dose: 250.0 mg/kg/injection, schedule: Q01DX Z (ip), vehicle: saline 102 % of control | [12] 97 % of control | dose: 500.0 mg/kg/injection, schedule: Q01DX Z (ip), vehicle: saline 94 % of control | dose: 1000.0 mg/kg/injection, schedule: Q01DX Z (ip), vehicle: saline 112 % of control

Fc1cc(N(CCCl)CCCl)ccc1C=Nc1ccc(-n2ccnc2)cc1
inactive: dose: 62.5 mg/kg/injection, schedule: Q04DX002 (ip), vehicle: Klucel (hydroxypropylcellulose) (HPC) 102 % of control | dose: 125.0 mg/kg/injection, schedule: Q04DX002 (ip), vehicle: Klucel (hydroxypropylcellulose) (HPC) 106 % of control | dose: 250.0 mg/kg/injection, schedule: Q04DX002 (ip), vehicle: Klucel (hydroxypropylcellulose) (HPC) 106 % of control

CCCN(CCC)CCCCN(CCC)CCCN(CCC)CCC
inactive: [10] 107 % of control | [11] 94 % of control

Nc1ncnc2c1CP(=O)(c1ccccc1)CC2 (stereo not drawn)
inactive: dose: 100.0 mg/kg/injection, schedule: Q04DX002 (ip), vehicle: saline with Tween-80 103 % of control | dose: 200.0 mg/kg/injection, schedule: Q04DX002 (ip), vehicle: saline with Tween-80 103 % of control | dose: 400.0 mg/kg/injection, schedule: Q04DX002 (ip), vehicle: saline with Tween-80 103 % of control

CSC(S(C)(=O)=O)S(C)(=O)=O
inactive: [1] 90 % of control | [2] 96 % of control | [3] 98 % of control

O=[N+]([O-])c1cccc(CO)c1-c1c(CO)cccc1[N+](=O)[O-]
inactive: [5] 101 % of control | [6] 102 % of control | dose: 400.0 mg/kg/injection, schedule: Q01DX009 (ip), vehicle: saline with Tween-80 101 % of control

[Co].[NH-]C(=O)c1ccccn1.[NH2-].[NH2-].[NH2-].[NH2-].[NH2-]
inactive: [8] 118 % of control | [9] 101 % of control | dose: 400.0 mg/kg/injection, schedule: Q04DX002 (ip), vehicle: saline 108 % of control

CC(=O)Oc1cc(OC(C)=O)c(Oc2cc(OC(C)=O)c(OC(C)=O)c(OC(C)=O)c2)c(OC(C)=O)c1
inactive: [1] 97 % of control | [2] 95 % of control | [3] 90 % of control

CCOC(=O)N(CCN1C(=O)c2ccccc2C1=O)c1cc(OC)ccc1OC
inactive: dose: 100.0 mg/kg/injection, schedule: Q04DX002 (ip), vehicle: Klucel (hydroxypropylcellulose) (HPC) 100 % of control | dose: 200.0 mg/kg/injection, schedule: Q04DX002 (ip), vehicle: Klucel (hydroxypropylcellulose) (HPC) 93 % of control | dose: 400.0 mg/kg/injection, schedule: Q04DX002 (ip), vehicle: Klucel (hydroxypropylcellulose) (HPC) 89 % of control

O=C(c1cccc([N+](=O)[O-])c1)C1CC1
inactive: dose: 25.0 mg/kg/injection, schedule: Q01DX001 (ip), vehicle: Klucel (hydroxypropylcellulose) (HPC) 97 % of control | dose: 50.0 mg/kg/injection, schedule: Q01DX001 (ip), vehicle: Klucel (hydroxypropylcellulose) (HPC) 101 % of control | [13] 95 % of control

CCS/C(N)=N\N
inactive: dose: 12.5 mg/kg/injection, schedule: Q01DX009 (ip), vehicle: saline 95 % of control | dose: 25.0 mg/kg/injection, schedule: Q01DX009 (ip), vehicle: saline 98 % of control | dose: 25.0 mg/kg/injection, schedule: Q04DX003 (ip), vehicle: saline 113 % of control | [7] 104 % of control | dose: 50.0 mg/kg/injection, schedule: Q04DX003 (ip), vehicle: saline 98 % of control

COCC(O)C(OC)C(OC)C(N)C=O (stereo not drawn)
inactive: [10] 101 % of control | [11] 101 % of control | [12] 107 % of control

CCOP(=O)(OCC)C1CC(C(C)C)CCC1C (stereo not drawn)
inactive: dose: 75.0 mg/kg/injection, schedule: Q01DX001 (ip), vehicle: other 93 % of control | dose: 150.0 mg/kg/injection, schedule: Q01DX001 (ip), vehicle: other 98 % of control | dose: 300.0 mg/kg/injection, schedule: Q01DX001 (ip), vehicle: other 110 % of control

COc1ccc(CN2CCCN(Cc3ccc(OC)cc3OC)C2c2ccc(N(CCCl)CCCl)cc2)c(OC)c1
inactive: dose: 50.0 mg/kg/injection, schedule: Q01DX001 (ip), vehicle: carboxymethylcellulose (CMC) 106 % of control | dose: 100.0 mg/kg/injection, schedule: Q01DX001 (ip), vehicle: carboxymethylcellulose (CMC) 101 % of control | dose: 200.0 mg/kg/injection, schedule: Q01DX001 (ip), vehicle: carboxymethylcellulose (CMC) 115 % of control | dose: 400.0 mg/kg/injection, schedule: Q01DX001 (ip), vehicle: carboxymethylcellulose (CMC) 106 % of control

c1ccc(NC23CC4CC(CC(C4)C2)C3)cc1
inactive: [4] 102 % of control | [5] 97 % of control | [1] 94 % of control | [6] 88 % of control | [2] 92 % of control | dose: 300.0 mg/kg/injection, schedule: Q01DX009 (ip), vehicle: saline with Tween-80 98 % of control

O=C(Oc1ccc(Cl)cc1)c1ccc(C(=O)Oc2ccc(Cl)cc2)cc1
inactive: dose: 75.0 mg/kg/injection, schedule: Q01DX009 (ip), vehicle: saline sonified 93 % of control | dose: 100.0 mg/kg/injection, schedule: Q04DX003 (ip), vehicle: Klucel (hydroxypropylcellulose) (HPC) 100 % of control | dose: 150.0 mg/kg/injection, schedule: Q01DX009 (ip), vehicle: saline sonified 91 % of control | dose: 200.0 mg/kg/injection, schedule: Q04DX003 (ip), vehicle: Klucel (hydroxypropylcellulose) (HPC) 97 % of control | dose: 300.0 mg/kg/injection, schedule: Q01DX009 (ip), vehicle: saline sonified 87 % of control | dose: 400.0 mg/kg/injection, schedule: Q04DX003 (ip), vehicle: Klucel (hydroxypropylcellulose) (HPC) 92 % of control

O=C(O)C12CC3CC1C2C3
inactive: [1] 103 % of control | [2] 91 % of control | [3] 86 % of control

CCOc1ccc(/C=N/NC(C)=O)cc1OC
inactive: [4] 95 % of control | [5] 101 % of control

Nc1cccc(CCCCc2ccc(Cl)cc2Cl)c1
inactive: [13] 97 % of control | dose: 200.0 mg/kg/injection, schedule: Q01DX001 (ip), vehicle: Klucel (hydroxypropylcellulose) (HPC) 96 % of control | dose: 400.0 mg/kg/injection, schedule: Q01DX001 (ip), vehicle: Klucel (hydroxypropylcellulose) (HPC) 102 % of control
